Test system: HT-29 viability, CellTiter-Glo ATP luminescence, 8-48 h
Test: time-course viability loss in HT-29 cells – cell-based, CellTiter-Glo, multiple timepoints, dry powder, HRas target identification project, dose response (AID 720598)

Structure (SMILES) | AC50 (measured here: 8 h treatment) | AC50 (measured here: 24 h treatment) | AC50 (measured here: 48 h treatment)
Cc1onc(C(=O)N2CCN(C(c3ccc(Cl)cc3)c3ccc(Cl)cc3)CC2)c1[N+](=O)[O-] | 2760 nM | 594 nM | 544 nM
COC(=O)c1ccc([C@@H]2c3[nH]c4ccccc4c3C[C@@H](C(=O)OC)N2C(=O)CCl)cc1 | 486 nM | 133 nM | 85.6 nM
CCC(=O)N(c1ccc(OC)c(Cl)c1)C(C(=O)NCCc1ccccc1)c1cccs1 (stereo unspecified) | – | – | > 70000 nM
C#CCCCC(=O)NCCOCCOCCOc1ccc(N(C(=O)CCl)C(C(=O)NCCc2ccccc2)c2cccs2)cc1Cl (stereo unspecified) | 11900 nM | 1510 nM | 1300 nM
COc1ccc(N(C(=O)CCl)C(C(=O)NCCc2ccccc2)c2cccs2)cc1Cl (stereo unspecified) | 729 nM | 103 nM | 56.1 nM
CC(C)(C)OC(=O)NCCOCCOCCOc1ccc(N(C(=O)CCl)C(C(=O)NCCc2ccccc2)c2cccs2)cc1Cl (stereo unspecified) | 742 nM | 448 nM | 287 nM
